Data taken from US20100029012A1, “Method for identifying modulators of the NRF2-KEAP1-AREP pathway” (priority 2006, published 2010).

What was measured:
[1] = tested on: His tagged Green Fluorescent Protein (GFP); conditions: relative to DMSO; FIG. 3
Experimental: In this assay, His tagged Green Fluorescent Protein (GFP) retention on a divalent metal cation surface is monitored in the presence of analytes.
Stock solutions containing analytes at various concentrations or 500 nL DMSO and controls are transferred into the wells of a CHOICECOAT metal chelate white 384 well plates (Catalog No. NC15140, Pierce Biotechnology, Inc.). The volume is 500 nL per well. Controls include 100 μM unlabeled Peptide 2 and 0.5% DMSO.
An assay solution containing one μg His tagged GFP protein in PBS (per well) is prepared and 50 μL of this assay solution is dispensed into each well of the 384 well plates. The plates are covered and incubated at room temperature for two hours. Following the room temperature incubation, the plates are cooled by incubating in a 4° C. refrigerator for one hour. The plates are then washed by aspirating the well, adding 80 uL of PBS-T, aspirating the well, adding 80 uL of PBS-T, and aspirating the well.

[2] = target: T1, His-tagged Keap1-kelch domain polypeptide (Homo sapiens, UniProt Q14145); assay: Antibody-based binding assay, displacement of 3H-labeled Nrf2 Peptide 2; conditions: Keap1-kelch domain polypeptide immobilized via anti-His tag antibody; about 1 nm to about 100 μM; FIG. 2
T1 construct: the Keap1-kelch domain polypeptide comprises amino acid residues 322 to 609 of the human Keap1 protein; made in house; host or cells: E. coli Rosetta2 BL21 pLysS, plasmid pET15b-Keap1-kelch domain
T1 sequence (Q14145 322-609): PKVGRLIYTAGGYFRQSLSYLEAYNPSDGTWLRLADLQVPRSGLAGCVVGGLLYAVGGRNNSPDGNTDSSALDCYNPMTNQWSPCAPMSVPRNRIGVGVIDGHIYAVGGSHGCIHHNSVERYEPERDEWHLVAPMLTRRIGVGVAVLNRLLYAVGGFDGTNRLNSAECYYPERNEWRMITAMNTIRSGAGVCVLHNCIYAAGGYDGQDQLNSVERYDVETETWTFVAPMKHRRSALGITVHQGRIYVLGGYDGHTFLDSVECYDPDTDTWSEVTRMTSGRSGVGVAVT
From the text: This example provides a protocol for an antibody-based binding assay for identifying activators of the Nrf2-Keap1 system. Because Keap1 protein's or Keap1-kelch domain polypeptide's binding to the assay plate surface is not dependent on divalent metal cations such as nickel, the antibody-based assay is also useful for determining whether the competitive effect observed in an ion-based assay was a result of the analyte competing with binding of the labeled Peptide 2 with the Keap1-kelch domain or with the binding of the Keap1 protein or Keap1-kelch domain polypeptide with divalent cations on the plate. In general, the assay is performed as follows.
One μg/mL of mouse-derived anti-His tag antibody (Catalog No. 35370, Quiagen, Valencia, Calif.) is added to anti-mouse IgG-coated white plates (Catalog No. 15234, Pierce Biotechnology, Inc.) and incubated at room temperature for two hours. The plate is then washed with four chamber volumes of PBS to remove any excess antibody.
Controls include […] unlabeled Nrf2 Peptide 2 and 0.5% DMSO.
During the last 15 minutes of the 4° C. incubation, one L of cold PBS-T is added to the Liquid 1 wash bottle of the EMBLA 96/384 plate washer (Molecular Devices Corporation, Sunnyvale, Calif.). The instrument is primed using program ‘A1’ a minimum of three times. […]

[3] = target: T2, recombinant human His-tagged Keap1-kelch domain polypeptide (human, UniProt Q14145 322-609); assay: method not stated; binding affinity for the kelch domain
T2 construct: domain: kelch domain; Expressed in E. coli from pET15b between NdeI and BamHI; also called recombinant Keap1-kelch domain; kelch domain of the Keap1 protein; not shown: N-terminal six-histidine tag from vector pET15b
T2 sequence (Q14145 322-609): as above

binding affinity [3] [nM]	Molecule	percent inhibition of binding of the GFP to the nickel on the surface of the plate [1] [%]	competition with labeled Peptide 2 for binding to the kelch domain (result in words) [2]
	CC[C@H](C)[C@H](NC(=O)[C@@H]1CCCN1C(=O)[C@H](CC(C)C)NC(=O)[C@H](Cc1ccccc1)NC(=O)[C@H](CCC(=O)O)NC(=O)CNC(=O)[C@@H](NC(=O)[C@H](CCC(=O)O)NC(=O)[C@H](CCC(=O)O)NC(=O)[C@H](CC(=O)O)NC(=O)[C@H](CC(C)C)NC(=O)[C@H](CCC(N)=O)NC(=O)[C@@H](N)CC(C)C)[C@@H](C)O)C(=O)N[C@@H](CCC(N)=O)C(=O)O [Peptide 2, NH2-LQLDEETGEFLPIQ-OH]	0	result from this assay expected for an analyte that competes
~397	LLVDGETGESFPAQ [Nrf1 peptide LLVDGETGESFPAQ]		
~626	RKRNVESGEEELAS [Pgam5 peptide RKRNVESGEEELAS]		
